Patent publication US7399472B2, “Vaccines” (Smithkline Beecham Biologicals, priority 1999, dated 2008)

Key:
erythrocytes = assay: Haemolysis assay for saponins; details: substantially pure samples
Experimental: Fresh blood from guinea pigs is washed with phosphate buffered saline (PBS) 3 times in a desk-top centrifuge. After resuspension to the original volume the blood is further diluted 10 fold in PBS. • 2. 50 μl of this blood suspension is added to 800 μl of PBS containing two-fold dilutions of surfactant or saponin. • 3. After 8 hours the haemolysis is assessed visually or by measuring the optical density of the supernatant. The presence of a red supernatant, which absorbs light at 570 nm indicates the presence of haemolysis. • 4. The results are expressed as the concentration of the first saponin dilution at which hemolysis no longer occurs.
For the purposes of his invention the saponin adjuvant preparation is haemolytic if it lyses the erythrocytes at a concentration of less than 0.1%. As means of reference, substantially pure samples of QuilA, QS21, QS7.

Lipo-OspA = assay type: in vivo, Balb/c mice; details: 14 days after nasal boost with 5 μg lipo-OspA; 20 μg CpG 1001 and/or 5 μg QS21; compared with PBS
influenza virus = system: influenza virus; parameters: species or system Balb/c mice; details: mouse, in vivo

Row | Molecule | haemolytic saponin as defined in this assay (erythrocytes) | intranasal boosting of systemic antibodies to Lipo-OspA (OspA specific IgG and LA2 titres) (Lipo-OspA) | intranasal boosting of IgG or HAI antibodies to Flu strains (influenza virus)
1 | β-escin | haemolytic |  | 
2 | CC1(C)[C@@H](O[C@H]2O[C@H](C(=O)O)[C@@H](O)[C@H](O)[C@H]2O[C@@H]2O[C@H](C(=O)O)[C@@H](O)[C@H](O)[C@H]2O)CC[C@]2(C)[C@H]3C(=O)C=C4[C@@H]5C[C@@](C)(C(=O)O)CC[C@]5(C)CC[C@@]4(C)[C@]3(C)CC[C@@H]12 [glycyrrhizic acid] | non haemolytic |  | 
3 | C[C@@H]1CC[C@@]2(OC1)O[C@H]1[C@@H](O)[C@H]3[C@@H]4CC[C@H]5C[C@@H](O[C@@H]6O[C@H](CO)[C@H](O[C@@H]7O[C@H](CO)[C@@H](O)[C@H](O[C@@H]8OC[C@@H](O)[C@H](O)[C@H]8O)[C@H]7O[C@@H]7O[C@H](CO)[C@H](O)[C@H](O[C@@H]8O[C@H](CO)[C@@H](O)[C@H](O)[C@H]8O)[C@H]7O)[C@H](O)[C@H]6O)[C@H](O)C[C@]5(C)[C@H]4CC[C@]3(C)[C@H]1[C@@H]2C [Digitonin] | haemolytic |  | 
4 | QS21 | haemolytic | improve significantly | do not improve
